Tests used:
[1] = tested on: Fall Armyworm (FAW, Spodoptera frugiperda); test: Lepidoptera diet-based feeding assay, FAW; assay type: in vivo; conditions: serial dilutions of Kings Medium fermentate (depsipeptide 55 ug/ml) in artificial diet
Description: (§1) Lepidopteran feeding assays (including FAW) were conducted on an artificial diet containing fermented broth in a 96 well plate set up. The broth was incorporated with multi-species Lepidopteran artificial diet (Southland Products Inc., Arkansas) in a ratio of 25 μl test sample and 35 μl of diet. Two to five neonate larvae were placed in each well to feed for 4 days. Results were expressed as positive for larvae reactions such as stunting and/or mortality. Results were expressed as negative if the larvae were similar to the negative control that is fed diet to which the above control broth only has been applied.

[2] = tested on: corn earworm (Hehcoverpa zea); test: Lepidoptera diet-based feeding assay, CEW; assay type: in vivo, Helicoverpa zea; conditions: serial dilutions of Kings Medium fermentate (depsipeptide 55 ug/ml) in artificial diet
Description: as §1

[3] = tested on: European corn borer (ECB, Ostrinia nubilalis); test: Lepidoptera diet-based feeding assay, ECB; assay type: in vivo; conditions: serial dilutions of Kings Medium fermentate (depsipeptide 55 ug/ml) in artificial diet
Description: as §1

[4] = tested on: soybean looper (SBL, Pseudoplusia includens); test: Lepidoptera diet-based feeding assay, SBL; assay type: in vivo; conditions: serial dilutions of Kings Medium fermentate (depsipeptide 55 ug/ml) in artificial diet
Description: as §1

[5] = tested on: Western Corn Rootworm (WCRW, Diabrotica virgifera virgifera); test: Coleoptera diet based feeding assay, WCRW; assay type: in vivo; conditions: serial dilutions of Kings Medium fermentate (depsipeptide 55 ug/ml) in artificial diet
Description: Western Corn Rootworm (WCRW, Diabrotica virgifera virgifera) bioassays were conducted in a 96 well plate format, mixing 10 μl of test sample with 50 μl molten modified Southern Corn Rootworm diet (Frontier Agricultural Sciences, diet F9800B). WCRW neonates were placed into each well before heat sealed with a Mylar film. Holes are punched in the film to allow air exchange. The assay was run four days at 25° C. in the dark. The plates were then scored for insect mortality and stunting of insect growth. The scores were noted as dead, severely stunted (little or no growth but alive), stunted (growth but not equivalent to controls) or no activity.

FAW = test: Medium-sized plant-based assay on corn, FAW; assay type: in vivo, Spodoptera frugiperda; parameters: key to insect live or dead: live=F; dead=K
Description: (§2) Broths A and B were tested against four insect species in medium insect test units; DBM, FAW, beet armyworm (Spodoptera exigua; BAW), and corn earworm (Helicoverpa zea; CEW). Test units were comprised of 70 cm^3 bases with 35 g of Woodstown Sandy Loam soil (Delmar, Del.) and mustard (Brassicae kaber; 6.5-7 cm), corn (Zea mays; 7-8 cm) or Bush bean (Phaseolus vulgaris; 6-7cm) as host plants for DBM, FAW and BAW, and CEW, respectively. Three concentrations of Broths A and B were tested: 0.25, 0.5 and 1×, with and without the surfactant X-77. Spinetoram was included as a positive control. Untreated controls were also included. Test units were sprayed with 1.2 mL of broth, in triplicate, and subsequently infested with approximately 15-20 stage 1 BAW or FAW larvae, or 30-40 neonate DBM or CEW. Units were kept in controlled conditions of 25° C./70% RH/16:8 h (L:D) photoperiod for six days and then scored. There are two scores given for each treatment, (1) plant damage rating from 0-10, with 0 being no damage and 10 being plant was completely consumed, and (2) insect live or dead (live=F; dead=K). The scores are averages of the three technical replicates. Any treatment with a plant damage score of 3 or less and an insect rating of K was considered to be active.

[6] = tested on: beet armyworm (Spodoptera exigua; BAW); test: Medium-sized plant-based assay on corn, BAW; assay type: in vivo; parameters: key to insect live or dead: live=F; dead=K
Description: as §2

[7] = tested on: corn earworm (Helicoverpa zea; CEW); test: Medium-sized plant-based assay on bush bean, CEW; assay type: in vivo; parameters: key to insect live or dead: live=F; dead=K
Description: as §2

[8] = 0.1 ppm, Table 3 assay without X-77, six days
[9] = 0.1 ppm, Table 4 assay with X-77, six days
[10] = 0.2 ppm, Table 3 assay without X-77, six days
[11] = 0.2 ppm, Table 4 assay with X-77, six days
[12] = 2 ppm, Table 3 assay without X-77, six days
[13] = 2 ppm, Table 4 assay with X-77, six days

Substance: FR901375 [depsipeptide]
- minimal dose to achieve 100% mortality [1]: 2 pmm
- minimal dose to achieve 100% mortality [2]: 11 ppm
- minimal dose to achieve 100% mortality [3]: 2 ppm
- minimal dose to achieve 100% mortality [4]: 1 ppm
- minimal dose to achieve 100% mortality [5]: 23 ppm

Substance: Spinetoram
- insect live or dead (FAW; [8]): F
- plant damage rating from 0-10 (FAW; [8]): 5
- insect live or dead (FAW; [9]): F
- plant damage rating from 0-10 (FAW; [9]): 5
- insect live or dead (FAW; [10]): K
- plant damage rating from 0-10 (FAW; [10]): 1
- insect live or dead (FAW; [11]): K
- plant damage rating from 0-10 (FAW; [11]): 1
- insect live or dead (FAW; [12]): K
- plant damage rating from 0-10 (FAW; [12]): 0
- insect live or dead (FAW; [13]): K
- plant damage rating from 0-10 (FAW; [13]): 0
- insect live or dead [6, 8]: F
- plant damage rating from 0-10 [6, 8]: 7
- insect live or dead [6, 9]: F
- plant damage rating from 0-10 [6, 9]: 7
- insect live or dead [6, 10]: F
- plant damage rating from 0-10 [6, 10]: 4
- insect live or dead [6, 11]: F
- plant damage rating from 0-10 [6, 11]: 4
- insect live or dead [6, 12]: K
- plant damage rating from 0-10 [6, 12]: 0
- insect live or dead [6, 13]: F
- plant damage rating from 0-10 [6, 13]: 4
- insect live or dead [7, 8]: K
- plant damage rating from 0-10 [7, 8]: 1
- insect live or dead [7, 9]: K
- plant damage rating from 0-10 [7, 9]: 1
- insect live or dead [7, 10]: K
- plant damage rating from 0-10 [7, 10]: 1
- insect live or dead [7, 11]: K
- plant damage rating from 0-10 [7, 11]: 1
- insect live or dead [7, 12]: K
- plant damage rating from 0-10 [7, 12]: 0
- insect live or dead [7, 13]: K
- plant damage rating from 0-10 [7, 13]: 0

Reference: patent US20220015372A1, “BIOLOGICALS AND THEIR USE IN PLANTS” (PIONEER HI-BRED INTERNATIONAL, INC., priority 2018, published 2022)
